How the values were obtained:
[1] = Chromatographic compatibility analyses (cation exchange, size exclusion, BAK method); assay type: physicochemical; conditions: no interference in cation exchange, size exclusion and BAK chromatography; PBS pH 7.4
Description: A formulation was prepared having 0.03% w/v ranpirnase together with oxymetazoline or brimonidine. The formulations were analyzed by chromatography to verify whether the therapeutic agent interferes with ranpirnase. Several chromatography methods were employed, including cation exchange and size exclusion chromatography, as well as benzalkonium chloride (BAK) analysis.
For cation exchange chromatography, analysis was performed with the following solutions: diluent (PBS pH 7.4), oxymetazoline HCl (0.5 mg/mL), placebo, and ranpirnase. Oxymetazoline HCl (0.5 mg/mL) solution was prepared in diluent. Both ranpirnase and its placebo were removed from the refrigerator, warmed to room temperature, and vialed into HPLC vials.
For size exclusion chromatography, analysis was performed on the following solutions: diluent (PBS pH 7.4), oxymetazoline HCl (0.5 mg/mL), placebo, and ranpirnase. Oxymetazoline HCl (0.5 mg/mL) solution was prepared in diluent. Both ranpirnase and its placebo were removed from the refrigerator, warmed to room temperature, and vialed into HPLC vials.
The benzalkonium chloride (BAK) analysis was performed on the following solutions: diluent (PBS pH 7.4), oxymetazoline HCl (0.05 mg/mL), placebo, and ranpirnase. Oxymetazoline HCl (0.5 mg/mL) solution (10×) was diluted to 0.05 mg/mL in diluent. […]

[2] = tested on: epidemic keratoconjunctivitis (EKC); conditions: eye drops tested clinically; cited from earlier work
[3] = tested on: NFκB; conditions: in vitro study; cited from earlier work

Q: With `Cc1cc(C(C)(C)C)c(O)c(C)c1CC1=NCCN1` [oxymetazoline, 3-(4,5-dihydro-1H-imidazol-2-ylmethyl)-2,4-dimethyl-6-tert-butyl-phenol] as the molecule, how does the “compatibility of formulating with ranpirnase in an ophthalmic formulation” value [1] read?
A: compatibility

Q: With `Nc1ccn(C[C@@H](CO)OCP(=O)(O)O)c(=O)n1` [cidofovir] as the molecule, how does the “clinical benefit in epidemic keratoconjunctivitis” value [2] read?
A: no definitive benefit was observed

B1: ranpirnase: amphibian ribonuclease from Rana pipiens oocytes/early embryos, RNase A superfamily, about 12 kD (protein, UniProt P22069 1-104, looked up)
Protein P-30: QDWLTFQKKHITNTRDVDCDNIMSTNLFHCKDKNTFIYSRPEPVKAICKGIIASKNVLTTSEFYLSDCNVTSRPCKYKLKKSTNKFCVTCENQAPVHFVGVGSC
Q: For B1, which “translocation of NFκB into the nucleus” value [3] is on record?
A: inhibits translocation of NFκB into the nucleus
